pEC50, pIC50: −log10 of the molar value. Read-outs that look alike come from different tables or passages of the source. Where only a bound is given, the exact number is not on record here.

Experiment [1] addresses T1, HIV-integrase (Human immunodeficiency virus type 1 group M subtype B, UniProt P12497).
T1 construct: Recombinant integrase (0.26 ng) was incubated with the beads
Kind of experiment: HIV-Integrase Inhibition Activity (SPA bead strand-transfer assay). The class given is biochemical. The method, boiled down:
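Biotin-labelled substrate DNA (5 pmole) bound to streptavidin SPA beads, preloaded with recombinant integrase (0.26 ng) for 90 min at 37° C, then washed. Inhibitors and 0.1 fmol P33-labelled target DNA added; reaction stopped with 10 mM EDTA. Integration read as scintillation CPM.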

Experiment [2] has as its system NL-Rluc virus. Kind of experiment: Inhibition of HIV replication (recombinant NL-Rluc virus, luciferase). The format is cell-based. The settings on record: Human immunodeficiency virus 1, read-out: Inhibition of HIV replication.
Experiment [3] relates to HIV-1 303B. Kind of experiment: microbe, parasite or virus in culture. The format is cell-based.
Where [4] appears, read: Table 2a, read-out: HIV-Integrase Inhibition Activity.

Regarding `Cc1nnn(-c2cc(F)ccc2CNC(=O)c2nc3n(c(=O)c2O)CCOC3(C)C)c1C` [Example 298, Pyrimido[2,1-c][1,4]oxazine-2-carboxamide, N-[[2-(4,5-dimethyl-1H-1,2,3-triazol-1-yl)-4-fluorophenyl]methyl]-4,6,7,9-tetrahydro-3-hydroxy-9,9-dimethyl-4-oxo-], the pIC50 in experiment [1] (setting [4]) is 7.00 to 8.70. In experiment [2], the pEC50 was 7.00 to 8.52.

On to `Cc1cnnn1-c1cc(F)ccc1CNC(=O)c1nc2n(c(=O)c1O)CCOC2(C)C` [Example 296, Pyrimido[2,1-c][1,4]oxazine-2-carboxamide, N-[[4-fluoro-2-(5-methyl-1H-1,2,3-triazol-1-yl)phenyl]methyl]-4,6,7,9-tetrahydro-3-hydroxy-9,9-dim ethyl-4-oxo-], for which the pIC50 in experiment [1] (setting [4]) is 7.00 to 8.70. In experiment [2], the pEC50 is 7.00 to 8.52.

Consider `CC1(C)OCCn2c1nc(C(=O)NCc1ccc(F)cc1P(=O)(O)O)c(O)c2=O` [Example 289, Phosphonic acid, [5-fluoro-2-[[[(4,6,7,9-tetrahydro-3-hydroxy-9,9-dimethyl-4-oxopyrimido[2,1-c][1,4]oxazin-2-yl)carbonyl]amino]methyl]phenyl]-], for which the pIC50 in experiment [1] (setting [4]) was 7.00 to 8.70. The pEC50 in experiment [2] is under 6.00.

`CC1(C)OCCn2c1nc(C(=O)NCc1ccc(F)cc1P1(=O)OCCO1)c(O)c2=O` [Example 291, Pyrimido[2,1-c][1,4]oxazine-2-carboxamide, N-[[4-fluoro-2-(2-oxido-1,3,2-dioxaphospholan-2-yl)phenyl]methyl]-4,6,7,9-tetrahydro-3-hydroxy-9,9-dimethyl-4-oxo-]: the pIC50 in experiment [1] (setting [4]) was 7.00 to 8.70. In experiment [2], the pEC50 was under 6.00.

With `CC1(C)OCCn2c1nc(C(=O)NCc1ccc(F)cc1-n1ncnc1CO)c(O)c2=O` [Example 308, Pyrimido[2,1-c][1,4]oxazine-2-carboxamide, N-[[4-fluoro-2-[5-(hydroxymethyl)-1H-1,2,4-triazol-1-yl]phenyl]methyl]-4,6,7,9-tetrahydro-3-hydroxy-9,9-dimethyl-4-oxo-], in experiment [1] (setting [4]), the pIC50 is 7.00 to 8.70. In addition, the pEC50 in experiment [2] is 7.00 to 8.52.

As for `CC(=O)OCCSc1cc(F)ccc1CNC(=O)c1nc2n(c(=O)c1O)CCOC2(C)C` [Example 309, Pyrimido[2,1-c][1,4]oxazine-2-carboxamide, N-[[2-[[2-(acetyloxy)ethyl]thio]-4-fluorophenyl]methyl]-4,6,7,9-tetrahydro-3-hydroxy-9,9-dimethyl-4-oxo-], in experiment [1] (setting [4]), the pIC50 is 7.00 to 8.70. For the same molecule, in experiment [2], the pEC50 was 7.00 to 8.52.

For `CC1(C)OCCn2c1nc(C(=O)NCc1ccc(F)cc1)c(O)c2=O` [Example 19, Pyrimido[2,1-c][1,4]oxazine-2-carboxamide, N-[(4-fluorophenyl)methyl]-4,6,7,9-tetrahydro-3-hydroxy-9,9-dimethyl-4-oxo-], in experiment [3] (Human immunodeficiency virus 1, MT2, 120 h), the pEC50 is 7.66. Further, the “overall antiviral effect of the two-drug combination with Example 19 (in words)” value in experiment [3] (classification from combination indices and confidence intervals) was “synergistic or additive-synergistic”. Besides, the pIC50 in experiment [1] (Table 1, read-out: Activity (HIV-integrase inhibition, IC50 class)) is 7.00 to 8.70.

Regarding `CCC1(C)OCCn2c1nc(C(=O)NCc1ccc(F)cc1S(=O)(=O)N(C)C)c(O)c2=O` (centres unmarked) [Example 315, Pyrimido[2,1-c][1,4]oxazine-2-carboxamide, N-[[2-[(dimethylamino)sulfonyl]-4-fluorophenyl]methyl]-9-ethyl-4,6,7,9-tetrahydro-3-hydroxy-9-methyl-4-oxo-], the pIC50 in experiment [1] (setting [4]) was 7.00 to 8.70. In addition, the pEC50 in experiment [2] is 7.00 to 8.52.

As to `CC1(C)OCCn2c1nc(C(=O)NCc1ccc(F)cc1S(=O)(=O)CCO)c(O)c2=O` [Example 312, Pyrimido[2,1-c][1,4]oxazine-2-carboxamide, N-[[4-fluoro-2-[(2-hydroxyethyl)sulfonyl]phenyl]methyl]-4,6,7,9-tetrahydro-3-hydroxy-9,9-dimethyl-4-oxo-], the pIC50 in experiment [1] (setting [4]) is 7.00 to 8.70. Further, the pEC50 in experiment [2] was 7.00 to 8.52.

On to `CCC1OCCn2c1nc(C(=O)NCc1ccc(F)cc1-n1ncnc1C)c(O)c2=O` (centres unmarked) [Example 285, Pyrimido[2,1-c][1,4]oxazine-2-carboxamide, 9-ethyl-N-[[4-fluoro-2-(5-methyl-1H-1,2,4-triazol-1-yl)phenyl]methyl]-4,6,7,9-tetrahydro-3-hydroxy-4-oxo-], for which the pEC50 in experiment [2] was 7.00 to 8.52.

Source of the values: US7491819B1 (priority 2004, dated 2009).
